According to patent US12077503B2, “Substituted cyclic amides and their use as herbicides” (FMC CORPORATION, priority 2015, dated 2024):

Assays:
Type in all cases: in vivo
[1] = test system: pigweed (Amaranthus retroflexus); test: Test A preemergence
[2] = test system: ryegrass, Italian (Italian ryegrass, Lolium multiflorum); test: Test A preemergence
Outline: (§1)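 Preemergence directed soil spray on seeded pots, or postemergence application to plants 2–10 cm, one- to two-leaf. Solvent mixture non-phytotoxic, with surfactant. Scored ~10 d later, visually, 0–100 vs untreated.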

[3] = test system: giant foxtail (Setaria faberii); test: Test A preemergence
Outline: as §1

Kochia (Kochia scoparia) [4] = test: Test A preemergence
Outline: as §1

[5] = test system: barnyardgrass (Echinochloa crus-galli); test: Test A preemergence
Outline: as §1

[6] = test system: ragweed (common ragweed, Ambrosia elatior); test: Test A preemergence
Outline: as §1

[7] = test system: ducksalad (Heteranthera limosa); test: Test B flooded paddy test; settings: Flood, 250 g ai/ha; 0 to 100 scale where 0 is no effect and 100 is complete control; 13 to 15 d
Outline: (§2)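 Greenhouse paddy pots with 2-leaf stage plants received compound by direct addition to floodwater 3 cm deep, kept at that level. Scored visually at 13–15 d versus controls (0 no effect; 100 complete control).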

rice (Oryra sativa) = test: Test B flooded paddy test; settings: Flood, 250 g ai/ha; 0 to 100 scale where 0 is no effect and 100 is complete control; 13 to 15 d
Outline: as §2

[8] = test system: barnyardgrass (Echinochloa crus-galli); test: Test B flooded paddy test; settings: Flood, 250 g ai/ha; 0 to 100 scale where 0 is no effect and 100 is complete control; 13 to 15 d
Outline: as §2

[9] = test system: sedge, umbrella (small-flower umbrella sedge, Cyperus difformis); test: Test B flooded paddy test; settings: Flood, 250 g ai/ha; 0 to 100 scale where 0 is no effect and 100 is complete control; 13 to 15 d
Outline: as §2

[10] = test system: pigweed (Amaranthus retroflexus); test: Test A postemergence
Outline: as §1

[11] = test system: blackgrass (Alopecurus myosuroides); test: Test A postemergence
Outline: as §1

[12] = test system: ryegrass, Italian (Italian ryegrass, Lolium multiflorum); test: Test A postemergence
Outline: as §1

[13] = test system: giant foxtail (Setaria faberii); test: Test A postemergence
Outline: as §1

corn (Zea mays) = test: Test A postemergence
Outline: as §1

[14] = test system: Galium (catchweed bedstraw, Galium aparine); test: Test A postemergence
Outline: as §1

Kochia (Kochia scoparia) [15] = test: Test A postemergence
Outline: as §1

[16] = test system: barnyardgrass (Echinochloa crus-galli); test: Test A postemergence
Outline: as §1

[17] = test system: ragweed (common ragweed, Ambrosia elatior); test: Test A postemergence
Outline: as §1

[18] = test system: wheat (Triticum aestivum); test: Test A postemergence
Outline: as §1

[19] = 125 g ai/ha, Preemergence, visual injury after approximately 10 d, 0 to 100 scale where 0 is no effect and 100 is complete control
[20] = 500 g ai/ha, preemergence, 0 to 100 scale, 0 = no effect, 100 = complete control
[21] = 125 g ai/ha, postemergence, visual rating after approx. 10 d, 0 to 100 scale (0 no effect, 100 complete control)
[22] = Postemergence, 500 g ai/ha, 0 to 100 scale where 0 is no effect and 100 is complete control
[23] = 125 g ai/ha, preemergence, 0 to 100 scale (0 no effect, 100 complete control)
[24] = Preemergence, 500 g ai/ha, 0 is no effect, 100 is complete control
[25] = 125 g ai/ha, postemergence, visual injury rating on 0 to 100 scale (0 no effect, 100 complete control), approx. 10 d
[26] = 500 g ai/ha, postemergence, 0 to 100 scale, 0 no effect, 100 complete control
[27] = Postemergence, 125 g ai/ha, visual injury, 0 to 100 scale (0 no effect, 100 complete control), approx. 10 d

CN1CC(c2cccc(OC(F)F)c2)C(C(=O)Nc2ccc(F)cc2F)C1=O (stereo not drawn) [Compound 617]
40: Plant response rating, Blackgrass [11, 21]
80: Plant response rating, Corn (corn (Zea mays); [21]) | Plant response rating, Corn (corn (Zea mays); [22])
100: Plant response rating, Foxtail, Giant [3, 20] | Plant response rating, Ducksalad [7]
10: Plant response rating, Rice (rice (Oryra sativa))
90: Plant response rating, Pigweed [1, 19] | Plant response rating, Pigweed [1, 20] | Plant response rating, Ryegrass, Italian [2, 20] | Plant response rating, Foxtail, Giant [3, 19] | Plant response rating, Barnyardgrass [5, 19] | Plant response rating, Barnyardgrass [5, 20] | Plant response rating, Barnyardgrass [8] | Plant response rating, Foxtail, Giant [13, 21] | Plant response rating, Foxtail, Giant [13, 22] | Plant response rating, Barnyardgrass [16, 21] | Plant response rating, Barnyardgrass [16, 22]
50: Plant response rating, Pigweed [10, 22] | Plant response rating, Ryegrass, Italian [12, 22] | Plant response rating, Kochia (Kochia (Kochia scoparia) [15]; [21]) | Plant response rating, Ragweed [17, 22] | Plant response rating, Wheat [18, 21]
30: Plant response rating, Ragweed [6, 19] | Plant response rating, Pigweed [10, 21]
60: Plant response rating, Ragweed [6, 20] | Plant response rating, Blackgrass [11, 22] | Plant response rating, Galium [14, 21] | Plant response rating, Galium [14, 22] | Plant response rating, Kochia (Kochia (Kochia scoparia) [15]; [22]) | Plant response rating, Wheat [18, 22]
70: Plant response rating, Ryegrass, Italian [2, 19] | Plant response rating, Kochia (Kochia (Kochia scoparia) [4]; [19]) | Plant response rating, Kochia (Kochia (Kochia scoparia) [4]; [20])
20: Plant response rating, Ryegrass, Italian [12, 21] | Plant response rating, Ragweed [17, 21]
0: Plant response rating, Sedge, Umbrella [9]

CN1CC(c2ccc(C(F)(F)F)c(F)c2)C(C(=O)Nc2cccc(F)c2F)C1=O (stereo not drawn) [Compound 396]
80: Plant response rating, Kochia (Kochia (Kochia scoparia) [4]; [23]) | Kochia plant response rating (0 to 100 scale) (Kochia (Kochia scoparia) [4]; [24]) | Foxtail, Giant plant response rating [13, 25] | Plant response rating, Corn (corn (Zea mays); [26])
30: Plant response rating, Rice (rice (Oryra sativa))
90: Plant response rating, Pigweed [1, 23] | Pigweed plant response rating (0 to 100 scale) [1, 24] | Plant response rating, Foxtail, Giant [3, 23] | Foxtail, Giant plant response rating (0 to 100 scale) [3, 24] | Plant response rating, Barnyardgrass [5, 23] | Barnyardgrass plant response rating (0 to 100 scale) [5, 24] | Plant response rating, Foxtail, Giant [13, 26] | Plant response rating, Barnyardgrass [16, 26]
70: Ryegrass, Italian plant response rating (0 to 100 scale) [2, 24] | Plant response rating, Pigweed [10, 26] | Plant response rating, Ryegrass, Italian [12, 26] | Corn plant response rating (corn (Zea mays); [25]) | Plant response rating, Kochia (Kochia (Kochia scoparia) [15]; [26]) | Plant response rating, Barnyardgrass [16, 27] | Plant response rating, Wheat [18, 26]
20: Ragweed plant response rating (0 to 100 scale) [6, 24] | Wheat plant response rating [18, 25]
40: Plant response rating, Ducksalad [7] | Plant response rating, Barnyardgrass [8]
0: Plant response rating, Ragweed [6, 23] | Plant response rating, Sedge, Umbrella [9] | Ragweed plant response rating [17, 25] | Plant response rating, Ragweed [17, 26]
50: Plant response rating, Blackgrass [11, 27] | Ryegrass, Italian plant response rating [12, 25]
60: Plant response rating, Ryegrass, Italian [2, 23] | Pigweed plant response rating [10, 25] | Plant response rating, Blackgrass [11, 26] | Galium plant response rating [14, 25] | Plant response rating, Galium [14, 26] | Kochia plant response rating (Kochia (Kochia scoparia) [15]; [25])
